Source: US20260199213A1, “PEPTIDE HAVING ACTIVITY OF IMPROVING STATE OF SKIN, AND USE THEREOF” (CAREGEN CO., LTD., priority 2022, published 2026)

Legend:
B16F10 cells = assay: Melanin production in α-MSH-stimulated B16F10 cells; assay type: cell-based, mouse; conditions: 200 ng/ml α-MSH, 50 μM or 100 μM peptide, 72 hours, absorbance at 450 nm
Description: B16F10 cells, a mouse melanoma cell line, were seeded at a density of 5×10^4 cells/well in a 6-well plate and cultured for 16 hours. Next, the culture medium was replaced with a medium including a 2% serum, and 200 ng/ml of α-MSH (α-melanocyte-stimulating hormones) was added to promote melanin production, in addition, 50 μM or 100 μM of each peptide consisting of the amino acid sequence of SEQ ID NO: 1 was added, and then cultured for 72 hours. Next, the cultured cells were dissolved with 1N NaOH and the absorbance at 450 nm was measured. Meanwhile, an untreated group (Con) was used as the control group, a group to which only α-MSH was added was used as the negative control group, a group to which the peptide consisting of the amino acid sequence of SEQ ID NO: 2 or 3 and α-MSH were added (50 μM, 100 μM) as the comparison group, and a group to which Arbutin (200 μM, 500 μM), known as a skin whitening agent, and α-MSH were added was used as the positive control group.

MMP-1 [1] = assay: MMP-1 expression increased by ultraviolet rays in HaCaT cells (western blot); assay type: cell-based; conditions: 20 mJ/cm^2 UV, 10 μM, 50 μM or 1000 μM peptide, 24 hours, FIG. 15
From the text: (§1) It has been reported that MMP-1 (matrix metalloproteinase-1) promotes the decomposition of collagen and the reduction of elastin in the dermis layer, thereby creating wrinkles and causing a decrease in elasticity in the skin. Accordingly, in this example, the aim was to confirm the effect of the peptide according to an embodiment on improving extrinsic skin aging, including improving wrinkles and increasing elasticity, etc., by evaluating the change in the expression level of MMP-1 increased by ultraviolet irradiation.
(§2) Specifically, NIH3T3 cells or HaCaT cells were seeded in a 6-well plate at a density of 5×10^5 cells/well and cultured for 24 hours. Next, the cells were washed once with serum-free DMEM media, and 10 μM, 50 μM or 1000 μM of the peptide consisting of the amino acid sequence of SEQ ID NO: 1 was dispensed into 1 mL of the serum-free media, and cultured in a CO2 incubator at 37° C. for 1 hour. Next, the above culture was transferred to an e-tube, mixed with 1 ml of PBS, and dispensed into a well plate. Next, using a UV irradiator (VILBER LOURMAT, Cat No.: 3102-BSU, France), 6 J/cm^2 ultraviolet rays were irradiated to NIH3T3 cells, and 20 mJ/cm^2 ultraviolet rays were irradiated to HaCaT cells. […] Next, MMP-1 was detected using […]. […]

fibronectin = assay: Fibronectin expression by RT-PCR in NIH3T3 cells; assay type: cell-based
Description: In this example, the aim was to confirm the effect of the peptide according to an example on improving endogenous skin aging, including improvement of wrinkles and enhancement of elasticity, etc., by evaluating the expression levels of collagen type 1 (Col1a1), fibronectin, elastin, and hyaluronic acid, which are known components of the dermis.
Specifically, NIH3T3 cells were seeded in a 6-well plate at a density of 3×10^5 cells/well and cultured for 24 hours. Next, the cells were washed once with serum-free DMEM media, and 10 μM, 50 μM or 1000 μM of a peptide consisting of an amino acid sequence of SEQ ID NO: 1 was dispensed into 1 mL of the serum-free media, and cultured in a CO2 incubator at 37° C. for 24 hours. Next, the culture was washed twice with PBS, and RNA was isolated from the culture using easy blue (iNtRON, Cat. No.: 17061, Korea). Next, using an RT kit (Enzynomics, Cat. NO.: RT200, Korea), the isolated RNA was reverse transcribed to synthesize the respective cDNA. Next, using the synthesized 1 ug cDNA, primers for Colla1, fibronectin, or elastin, and a PCR kit (Enzynomics, Cat. No.: P581T, Korea), polymerase chain reaction (PCR) was performed. Meanwhile, in this example, an untreated group was used as a control group, and a group to which […] was added was used as a positive control group, the nucleotide sequences of the primers used in this example are shown in Table 2 below.
In this example, the aim was to more specifically compare the effects of peptides according to an embodiment on improving intrinsic skin aging. To this end, a peptide consisting of an amino acid sequence of SEQ ID NO: 2, 3, or 4 having a sequence similar to a peptide according to an embodiment was set as a comparison group, and the expression levels of fibronectin and elastin were evaluated and compared in the same manner as in Example 2-1. […]

MMP-1 [2] = assay: MMP-1 expression increased by ultraviolet rays in NIH3T3 cells (western blot); assay type: cell-based; conditions: 6 J/cm^2 UV, 10 μM, 50 μM or 1000 μM peptide, 24 hours, FIG. 14
From the text: as §1, §2

GPRGDP [SEQ ID NO: 1]
melanin production (B16F10 cells): decreased
expression of MMP-1 increased by ultraviolet irradiation (MMP-1 [1]): reduced or restored
expression of fibronectin (fibronectin; 10 μM, 50 μM or 1000 μM peptide, 24 hours, PCR, vs untreated group): increased
expression of fibronectin (Example 2-2) (fibronectin; comparison experiment, FIG. 5 and FIG. 6): increased
fibronectin expression effect compared to the comparison group (fibronectin; vs peptides of SEQ ID NO: 2, 3, or 4 (50 μM, 100 μM)): superior
expression of MMP-1 increased by ultraviolet irradiation (MMP-1 [2]): reduced or restored
